The values that follow come from patent publication US7915276B2, “Berberrubine derivatives having antifungal activities” (priority 2006, dated 2011).

In experiment [1] the target is T1, chitin synthase 1 of Candida albicans chs2 Δ chs 3 Δ (Candida albicans, UniProt P23316).
T1 construct: Crude enzyme was prepared using the Candida albicans chs2 Δ chs 3 Δ mutant; endogenous in cells; host or cells: Candida albicans chs2Δ/chs2Δ chs3Δ/chs3Δ mutant; 130,000 x g membrane pellet
The experiment can be described thus: In vitro enzyme assay for chitin synthase 1 of Candida albicans (enzyme 1). It is filed as biochemical. The conditions noted are these: relative to polyoxin D (50% inhibitory activity = value 5). The procedure, abridged: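 Trypsin-activated crude membrane chitin synthase 1 from C. albicans chs2Δ chs3Δ was incubated 90 min at 30 °C with 1.1 mM UDP-[14C]GlcNAc and 2 mM cobalt acetate in Tris-HCl pH 7.5. Filtered TCA precipitate was counted by scintillation; values are scores 1–8 against polyoxin D (5 = same concentration).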

Experiment [2] has as its target T2, chitin synthase 2 of Saccharomyces cerevisiae ECY38-38A(pAS6) (Saccharomyces cerevisiae, UniProt P14180).
T2 construct: made in house; host or cells: Saccharomyces cerevisiae ECY38-38A (chs1-23 chs2::LEU2 cal1/csd2) carrying plasmid pAS6, grown in galactose medium; 130,000 x g membrane pellet
Description: In vitro enzyme assay for chitin synthase 2 of Saccharomyces cerevisiae (enzyme 2). It is filed as biochemical. The conditions noted are these: relative to polyoxin D (50% inhibitory activity = value 5). Summed up: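 Values are scores: 5 means 50% inhibition at the same concentration as polyoxin D, lower scores 2- to 16-fold higher concentration, higher scores ½ to ⅛. Radiolabel from 1.1 mM UDP-[14C]-GlcNAc was incorporated into TCA-insoluble chitin over 90 min at 30 °C (pH 7.5 Tris, 2 mM Co2+). The enzyme was a trypsin-activated membrane fraction from CHS2-only S. cerevisiae ECY38-38A(pAS6).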

The subject of experiment [3] is Aspergillus flavus ATCC 64025. Description: In vitro antifungal activity (MIC), NCCLS method. The conditions noted are these: 48 hours. It is filed as cell-based. An excerpt: (§1) Candida albicans ATCC 10231, Candida lusitaniae ATCC 42720, Candida krusei ATCC 6258, Candida tropicalis ATCC 13803, Candida glabrata ATCC 48435, Candida parapsilosis ATCC 34136, Cryptococcus neoformans ATCC 36556, Aspergillus fumigatus ATCC 16424, Aspergillus flavus ATCC 64025, Aspergillus terreus ATCC 46941 and Mucor ramosissimus ATCC 90286 strains for the MIC (minimum inhibitory concentration) measurement were obtained from ATCC (American Type Culture Collection) in the U.S. The Candida albicans A207(clinical isolate) strain was used by isolating it from the patients.
(§2) The determination of MIC was performed according to the NCCLS (National Committee for Clinical Laboratory Standard) method. Each test sample solution was diluted two-fold and inoculated with a fungal suspension to reach a final inoculum size of 5×10^2 to 2.5×10^3 cell/mL. The Cryptococcus neoformans strain was cultured in the RPMI 1640 medium for 72 hours. Other strains were cultured for 48 hours.

Experiment [4] has as its system Aspergillus fumigatus ATCC 16424. The experiment can be described thus: In vitro antifungal activity (MIC), NCCLS method. Type of experiment: cell-based. The conditions noted are these: 48 hours.
Source text: as §1, §2

The subject of experiment [5] is Aspergillus terreus ATCC 46941. Description: In vitro antifungal activity (MIC), NCCLS method. Type of experiment: cell-based. The conditions noted are these: 48 hours.
Source text: as §1, §2

The subject of experiment [6] is Candida albicans A207 (clinical isolate). The experiment can be described thus: In vitro antifungal activity (MIC), NCCLS method. Type of experiment: cell-based. The conditions noted are these: 48 hours.
Source text: as §1, §2

Experiment [7] deals with Candida albicans ATCC 10231. The experiment can be described thus: In vitro antifungal activity (MIC), NCCLS method. The conditions noted are these: 48 hours. It is filed as cell-based.
Source text: as §1, §2

Experiment [8] concerns Candida glabrata ATCC 48435. Description: In vitro antifungal activity (MIC), NCCLS method. It is filed as cell-based. The conditions noted are these: Candida glabrata ATCC 48435; 48 hours.
Source text: as §1, §2

In another experiment the test system is Candida krusei ATCC 6258. The experiment can be described thus: In vitro antifungal activity (MIC), NCCLS method. The conditions noted are these: 48 hours. It is filed as cell-based.
Source text: as §1, §2

The subject of experiment [9] is Candida lusitaniae ATCC 42720. The experiment can be described thus: In vitro antifungal activity (MIC), NCCLS method. It is filed as cell-based. The conditions noted are these: 48 hours.
Source text: as §1, §2

Experiment [10] deals with Candida parapsilosis ATCC 34136. Description: In vitro antifungal activity (MIC), NCCLS method. The conditions noted are these: Candida parapsilosis ATCC 34136; 48 hours. It is filed as cell-based.
Source text: as §1, §2

Experiment [11] deals with Candida tropicalis ATCC 13803. The experiment can be described thus: In vitro antifungal activity (MIC), NCCLS method. It is filed as cell-based. The conditions noted are these: 48 hours.
Source text: as §1, §2

In experiment [12] the test system is Cryptococcus neoformans ATCC 36556. The experiment can be described thus: In vitro antifungal activity (MIC), NCCLS method. It is filed as cell-based. The conditions noted are these: RPMI 1640 medium, 72 hours.
Source text: as §1, §2

The test system of experiment [13] is Mucor ramosissimus ATCC 90286. Description: In vitro antifungal activity (MIC), NCCLS method. It is filed as cell-based. The conditions noted are these: 48 hours.
Source text: as §1, §2

T1 sequence (P23316 whole entry, stated change not applied): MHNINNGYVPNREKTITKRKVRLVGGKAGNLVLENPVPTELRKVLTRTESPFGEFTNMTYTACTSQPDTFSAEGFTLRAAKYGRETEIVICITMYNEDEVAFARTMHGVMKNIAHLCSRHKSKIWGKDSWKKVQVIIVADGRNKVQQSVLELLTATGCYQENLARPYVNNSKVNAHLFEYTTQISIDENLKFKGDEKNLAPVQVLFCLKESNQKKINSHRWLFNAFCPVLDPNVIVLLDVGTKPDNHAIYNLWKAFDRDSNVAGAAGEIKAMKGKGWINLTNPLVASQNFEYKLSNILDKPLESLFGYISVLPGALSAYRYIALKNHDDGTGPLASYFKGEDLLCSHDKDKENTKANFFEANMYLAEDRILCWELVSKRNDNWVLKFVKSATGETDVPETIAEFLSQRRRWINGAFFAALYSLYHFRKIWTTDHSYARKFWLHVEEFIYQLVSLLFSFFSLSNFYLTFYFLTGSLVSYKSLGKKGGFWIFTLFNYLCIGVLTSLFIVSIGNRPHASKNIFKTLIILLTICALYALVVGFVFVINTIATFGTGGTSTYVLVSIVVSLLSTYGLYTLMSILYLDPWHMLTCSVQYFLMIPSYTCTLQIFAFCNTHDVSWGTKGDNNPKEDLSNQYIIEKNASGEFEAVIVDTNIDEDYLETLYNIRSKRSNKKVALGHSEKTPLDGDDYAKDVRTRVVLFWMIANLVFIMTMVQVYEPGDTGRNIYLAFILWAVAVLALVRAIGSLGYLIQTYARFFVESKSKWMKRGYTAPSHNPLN
T2 sequence (P14180 whole entry): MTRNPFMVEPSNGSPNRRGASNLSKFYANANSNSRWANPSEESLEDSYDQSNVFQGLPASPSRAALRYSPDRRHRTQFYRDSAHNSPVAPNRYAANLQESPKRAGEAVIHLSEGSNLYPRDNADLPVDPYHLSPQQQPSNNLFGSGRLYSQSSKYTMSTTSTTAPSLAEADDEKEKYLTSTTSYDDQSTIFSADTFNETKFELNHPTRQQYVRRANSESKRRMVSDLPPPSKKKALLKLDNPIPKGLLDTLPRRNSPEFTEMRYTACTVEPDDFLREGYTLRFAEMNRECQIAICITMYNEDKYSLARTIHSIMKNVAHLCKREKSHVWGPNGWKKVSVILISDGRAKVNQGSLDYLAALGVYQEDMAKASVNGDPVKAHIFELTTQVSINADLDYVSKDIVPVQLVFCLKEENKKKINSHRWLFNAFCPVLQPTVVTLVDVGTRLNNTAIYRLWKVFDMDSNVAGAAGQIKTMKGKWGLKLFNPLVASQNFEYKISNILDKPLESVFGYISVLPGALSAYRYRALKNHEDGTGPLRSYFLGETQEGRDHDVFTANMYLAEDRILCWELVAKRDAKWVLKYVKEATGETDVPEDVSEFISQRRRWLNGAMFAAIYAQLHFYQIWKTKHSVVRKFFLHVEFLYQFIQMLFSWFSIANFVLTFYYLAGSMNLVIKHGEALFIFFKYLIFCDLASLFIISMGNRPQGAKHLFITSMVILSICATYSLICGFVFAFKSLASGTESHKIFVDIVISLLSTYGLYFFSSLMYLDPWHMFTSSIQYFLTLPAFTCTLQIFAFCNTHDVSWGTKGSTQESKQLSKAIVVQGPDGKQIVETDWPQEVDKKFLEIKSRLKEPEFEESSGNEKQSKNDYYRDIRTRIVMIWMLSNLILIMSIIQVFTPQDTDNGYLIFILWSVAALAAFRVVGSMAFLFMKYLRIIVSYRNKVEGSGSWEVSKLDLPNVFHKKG

Regarding “13-(4-Isopropylbenzyl)-9-O-(3-hydroxypropyl)berberrubine chloride [Compound No. 53]”, the “Relative activity Enzyme 1” value in experiment [1] is 4 (Compounds having the inhibitory activity at 2-fold, 4-fold, 8-fold and 16-fold higher concentrations than that of polyoxin D were given the values of 4, 3, 2 and 1, respectively). Moreover, the “Relative activity Enzyme 2” value in [2] is 6 (compounds having the inhibitory activity at ½, ¼ and ⅛ lower concentrations than that of polyoxin D were given the values of 6, 7 and 8, respectively). Also, the “MIC (minimum inhibitory concentration)” value in experiment [3] worked out at 8 µg/mL; in [4], 2 µg/mL; in experiment [5], 8 µg/mL; in [6], 0.5 µg/mL; in experiment [7], 0.5 µg/mL; in experiment [8], 2 µg/mL. In addition, the “MIC (minimum inhibitory concentration)” value with Candida krusei ATCC 6258 was 1 µg/mL; in experiment [9], 2 µg/mL; in experiment [10] it was 2 µg/mL; in experiment [11], 0.5 µg/mL; in experiment [12], 1 µg/mL; in [13] it was 4 µg/mL.
In the case of “13-(4-Isopropylbenzyl)-9-O-(3-hydroxypropyl)berberrubine iodide [Compound No. 21]”, in [1], the “Relative activity Enzyme 1” value was 3 (Compounds having the inhibitory activity at 2-fold, 4-fold, 8-fold and 16-fold higher concentrations than that of polyoxin D were given the values of 4, 3, 2 and 1, respectively). Also, the “Relative activity Enzyme 2” value in experiment [2] is 6 (compounds having the inhibitory activity at ½, ¼ and ⅛ lower concentrations than that of polyoxin D were given the values of 6, 7 and 8, respectively). The “MIC (minimum inhibitory concentration)” value in experiment [3] amounted to 8 µg/mL; in experiment [4] it was 2 µg/mL; in experiment [5], 8 µg/mL; in [6], 0.5 µg/mL; in experiment [7], 0.5 µg/mL; in [8] it was 2 µg/mL. Further, the “MIC (minimum inhibitory concentration)” value in the experiment with Candida krusei ATCC 6258 is 1 µg/mL; in experiment [9] it was 2 µg/mL; in [10], 2 µg/mL; in [11] it was 0.5 µg/mL; in experiment [12] it was 1 µg/mL; in experiment [13], 4 µg/mL.
As to “13-(4-Isopropylbenzyl)-9-O-(4-isopropylbenzyl)berberrubine bromide [Compound No. 26]”, the “Relative activity Enzyme 1” value in experiment [1] is 2 (Compounds having the inhibitory activity at 2-fold, 4-fold, 8-fold and 16-fold higher concentrations than that of polyoxin D were given the values of 4, 3, 2 and 1, respectively). Also, the “Relative activity Enzyme 2” value in experiment [2] is 5 (A compound having the same inhibitory activity as that of polyoxin D at the same concentration was given the value 5). For the same substance, the “MIC (minimum inhibitory concentration)” value worked out at 8 µg/mL in [3]; 4 µg/mL in experiment [4]; 8 µg/mL in [5]; 1 µg/mL in experiment [6]; 1 µg/mL in experiment [7]; 2 µg/mL in experiment [8]. Further, the “MIC (minimum inhibitory concentration)” value in the experiment with Candida krusei ATCC 6258 was 2 µg/mL; in experiment [9], 4 µg/mL; in [10] it was 8 µg/mL; in experiment [11], 1 µg/mL; in experiment [12], 2 µg/mL; in [13] it was 8 µg/mL.
For the substance “13-(4-Isopropylbenzyl)-9-O-(4-isopropylbenzyl)berberrubine chloride [Compound No. 58]”, the “Relative activity Enzyme 1” value in [1] is 2 (Compounds having the inhibitory activity at 2-fold, 4-fold, 8-fold and 16-fold higher concentrations than that of polyoxin D were given the values of 4, 3, 2 and 1, respectively). In addition, the “Relative activity Enzyme 2” value in experiment [2] is listed as 5 (A compound having the same inhibitory activity as that of polyoxin D at the same concentration was given the value 5). Further, the “MIC (minimum inhibitory concentration)” value in [3] is 8 µg/mL; in experiment [4], 4 µg/mL; in experiment [5] it was 8 µg/mL; in experiment [6] it was 1 µg/mL; in [7] it was 1 µg/mL; in experiment [8], 2 µg/mL. Further, the “MIC (minimum inhibitory concentration)” value stood at 2 µg/mL against Candida krusei ATCC 6258; 4 µg/mL in [9]; 8 µg/mL in [10]; 1 µg/mL in experiment [11]; 2 µg/mL in experiment [12]; 8 µg/mL in [13].
In the case of “13-(4-Isopropylbenzyl)-9-O-(4-tert-butylbenzyl)berberrubine bromide [Compound No. 25]”, in experiment [1], the “Relative activity Enzyme 1” value is 2 (Compounds having the inhibitory activity at 2-fold, 4-fold, 8-fold and 16-fold higher concentrations than that of polyoxin D were given the values of 4, 3, 2 and 1, respectively). Besides, the “Relative activity Enzyme 2” value in experiment [2] was 5 (A compound having the same inhibitory activity as that of polyoxin D at the same concentration was given the value 5). Also, the “MIC (minimum inhibitory concentration)” value in experiment [3] worked out at 8 µg/mL; in experiment [4] it was 4 µg/mL; in experiment [5], 8 µg/mL; in experiment [6] it was 1 µg/mL; in experiment [7], 1 µg/mL; in [8], 4 µg/mL. In addition, the “MIC (minimum inhibitory concentration)” value with Candida krusei ATCC 6258 amounted to 4 µg/mL; in experiment [9] it was 4 µg/mL; in experiment [10], 8 µg/mL; in experiment [11], 1 µg/mL; in experiment [12], 2 µg/mL; in [13] it was 8 µg/mL.
On to “13-(4-Isopropylbenzyl)-9-O-(4-tert-butylbenzyl)berberrubine chloride [Compound No. 57]”, for which the “Relative activity Enzyme 1” value in experiment [1] was 2 (Compounds having the inhibitory activity at 2-fold, 4-fold, 8-fold and 16-fold higher concentrations than that of polyoxin D were given the values of 4, 3, 2 and 1, respectively). For the same substance, the “Relative activity Enzyme 2” value in experiment [2] was 5 (A compound having the same inhibitory activity as that of polyoxin D at the same concentration was given the value 5). In addition, the “MIC (minimum inhibitory concentration)” value in experiment [3] amounted to 8 µg/mL; in experiment [4] it was 4 µg/mL; in [5] it was 8 µg/mL; in experiment [6], 1 µg/mL; in [7], 1 µg/mL; in [8], 4 µg/mL. The “MIC (minimum inhibitory concentration)” value against Candida krusei ATCC 6258 amounted to 4 µg/mL; in experiment [9] it was 4 µg/mL; in experiment [10] it was 8 µg/mL; in experiment [11], 1 µg/mL; in [12], 2 µg/mL; in experiment [13], 8 µg/mL.
